Experimental data from PMC6599250, “Functional diversity of inhibitors tackling the differentiation blockage of MLL-rearranged leukemia” (Journal of Hematology & Oncology, 2019).
Where two headings read alike, the source gives them in different places.

Columns and labels:
Assay type in all cases: cell-based
[1] = system: HL-60 (MLL-WT) cells; assay: Cell proliferation (alamarBlue) HL-60; settings: for IC50: Homo sapiens, read-out: IC50 proliferation
Method: (§1) Cells were seeded in the optimal growth medium at 4000–5000 cells/well in a 96 MTP and cultured 18–24 h before inhibitor treatment.

[2] = system: Jurkat (MLL-WT) cells; assay: Cell proliferation (alamarBlue) Jurkat; settings: Homo sapiens
Method: as §1

[3] = system: OCI-AML-5 (MLL-WT) cells; assay: Cell proliferation (alamarBlue) OCI-AML-5; settings: Homo sapiens
Method: as §1

[4] = system: OCI-AML-3 (MLL-WT) cells; assay: Cell proliferation (alamarBlue) OCI-AML-3; settings: Homo sapiens
Method: as §1

[5] = system: MV4-11 (MLL-AF4) cells; assay: Cell proliferation (alamarBlue) MV4-11; settings: Homo sapiens
Method: as §1

[6] = system: RS4;11 (MLL-AF4) cells; assay: Cell proliferation (alamarBlue) RS4;11; settings: Homo sapiens, RS4-11, read-out: IC50 proliferation, RS4;11 (MLL-AF4)
Method: as §1

[7] = system: SEM (MLL-AF4) cells; assay: Cell proliferation (alamarBlue) SEM
Method: as §1

[8] = system: ML-2 (MLL-AF6) cells; assay: Cell proliferation (alamarBlue) ML-2
Method: as §1

[9] = system: MOLM-13 (MLL-AF9) cells; assay: Cell proliferation (alamarBlue) MOLM-13; settings: Homo sapiens
Method: as §1

[10] = system: MOLM-14 (MLL-AF9) cells; assay: Cell proliferation (alamarBlue) MOLM-14; settings: Homo sapiens
Method: as §1

[11] = system: NOMO-1 (MLL-AF9) cells; assay: Cell proliferation (alamarBlue) NOMO-1; settings: Homo sapiens
Method: as §1

[12] = system: OCI-AML-2 (MLL-AF9) cells; assay: Cell proliferation (alamarBlue) OCI-AML-2; settings: Homo sapiens
Method: as §1

[13] = system: KOPN-8 (MLL-ENL) cells; assay: Cell proliferation (alamarBlue) KOPN-8; settings: Homo sapiens
Method: as §1

[14] = system: EOL-1 (MLL-TD) cells; assay: Cell proliferation (alamarBlue) EOL-1; settings: Homo sapiens
Method: as §1

[15] = system: selected MLL-fused models; assay: Cell proliferation, AML/ALL panel; settings: specifically in selected MLL-fused models (Fig. 2a); read-out: proliferation IC50 (significant effects)
Method: as §1

[16] = system: MLL-fused cell lines (MV4-11, MOLM-13); assay: CD11b protein expression by flow cytometry, MLL-fused lines; settings: 4 and 7 days of treatment
Method: (§2) Four thousand cells per well were seeded 24 h before they were treated with the indicated inhibitor in a 96 MTP. After 4 or 7 days of treatment, cells were washed with PBS and stained with CD11b - APC (BioLegend, San Diego, California, USA) and DAPI (Thermo Fisher Scientific, Waltham, Massachusetts, USA) or AnnexinV – FITC (BioLegend, San Diego, California, USA) and PI solution (Sigma-Aldrich St. Louis, Missouri, USA) using the FACS Canto II (BD Biosciences, Heidelberg, Germany) and data was analyzed with FACSDiva software.

[17] = system: HL-60 cells; assay: CD11b protein expression by flow cytometry, HL-60; settings: non-fused HL-60 cell line, 4 and 7 days of treatment
Method: as §2

[18] = system: MV4-11, MOLM-13 and HL-60 cells; assay: Cell cycle analysis (PI, flow cytometry); settings: 4 days of treatment (Figure S2)
Method: Cells were washed with PBS and fixed overnight at − 20 °C with 70% ethanol. Fixed cells were stained with PI solution (Sigma-Aldrich St. Louis, MO, USA) solution containing RNase A (Qiagen, Hilden, Germany). Fluorescence was measured with FACS Canto II (BD Biosciences, Heidelberg, Germany) flow cytometer and data was analyzed with FACSDiva software.

IC50 ([1]; HL-60, 24 h): > 10 µM
IC50 ([1]; HL-60, 96 h): 9.04 µM
IC50 ([1]; HL-60, 168 h): > 10 µM
IC50 ([2]; read-out: IC50 proliferation, Jurkat (MLL-WT), D1): > 10 µM
IC50 ([2]; read-out: IC50 proliferation, Jurkat (MLL-WT), D4): 9 µM
IC50 ([2]; read-out: IC50 proliferation, Jurkat (MLL-WT), D7): 9.09 µM
IC50 ([3]; OCI-AML-5, read-out: IC50 proliferation, OCI-AML-5 (MLL-WT), D1): > 10 µM
IC50 ([3]; OCI-AML-5, read-out: IC50 proliferation, OCI-AML-5 (MLL-WT), D4): > 10 µM
IC50 ([3]; OCI-AML-5, read-out: IC50 proliferation, OCI-AML-5 (MLL-WT), D7): 8.56 µM
IC50 ([4]; OCI-AML-3, read-out: IC50 proliferation, OCI-AML-3 (MLL-WT), D1): > 10 µM
IC50 ([4]; OCI-AML-3, read-out: IC50 proliferation, OCI-AML-3 (MLL-WT), D4): 1.37 µM
IC50 ([4]; OCI-AML-3, read-out: IC50 proliferation, OCI-AML-3 (MLL-WT), D7): 1.56 µM
IC50 ([5]; MV4-11, read-out: IC50 proliferation, MV4-11 (MLL-AF4), D1): > 10 µM
IC50 ([5]; MV4-11, read-out: IC50 proliferation, MV4-11 (MLL-AF4), D4): 0.09 µM
IC50 ([5]; MV4-11, read-out: IC50 proliferation, MV4-11 (MLL-AF4), D7): 0.03 µM
IC50 ([6]; D1): > 10 µM
IC50 ([6]; D4): > 10 µM
IC50 ([6]; D7): 5.99 µM
IC50 ([9]; MOLM-13, read-out: IC50 proliferation, MOLM-13 (MLL-AF9), D1): > 10 µM
IC50 ([9]; MOLM-13, read-out: IC50 proliferation, MOLM-13 (MLL-AF9), D4): 0.14 µM
IC50 ([9]; MOLM-13, read-out: IC50 proliferation, MOLM-13 (MLL-AF9), D7): 0.28 µM
IC50 ([10]; MOLM-14, read-out: IC50 proliferation, MOLM-14 (MLL-AF9), D1): 6.89 µM
IC50 ([10]; MOLM-14, read-out: IC50 proliferation, MOLM-14 (MLL-AF9), D4): 0.31 µM
IC50 ([10]; MOLM-14, read-out: IC50 proliferation, MOLM-14 (MLL-AF9), D7): 0.23 µM
IC50 ([12]; OCI-AML2, read-out: IC50 proliferation, OCI-AML-2 (MLL-AF9), D1): > 10 µM
IC50 ([12]; OCI-AML2, read-out: IC50 proliferation, OCI-AML-2 (MLL-AF9), D4): 8.26 µM
IC50 ([12]; OCI-AML2, read-out: IC50 proliferation, OCI-AML-2 (MLL-AF9), D7): 9.15 µM
Structure (SMILES): Cc1c(CN2CCC3(CC2)CN(c2ncnc4sc(CC(F)(F)F)cc24)C3)ccc2c1cc(C#N)n2CC(N)=O [BAY-155]
anti-proliferation effect in non-fused HL-60 ([1]; HL-60, 4 days of treatment (Fig. 1a)): only affected with the 10 μM treatment
IC50 ([7]; read-out: IC50 proliferation, SEM (MLL-AF4), D1): > 10 µM
IC50 ([7]; read-out: IC50 proliferation, SEM (MLL-AF4), D4): 0.66 µM
IC50 ([7]; read-out: IC50 proliferation, SEM (MLL-AF4), D7): 0.79 µM
IC50 ([8]; read-out: IC50 proliferation, ML-2 (MLL-AF6), D1): > 10 µM
IC50 ([8]; read-out: IC50 proliferation, ML-2 (MLL-AF6), D4): > 10 µM
IC50 ([8]; read-out: IC50 proliferation, ML-2 (MLL-AF6), D7): > 10 µM
IC50 ([11]; NOMO-1, read-out: IC50 proliferation, NOMO-1 (MLL-AF9), D1): > 10 µM
IC50 ([11]; NOMO-1, read-out: IC50 proliferation, NOMO-1 (MLL-AF9), D4): 0.15 µM
IC50 ([11]; NOMO-1, read-out: IC50 proliferation, NOMO-1 (MLL-AF9), D7): 0.07 µM
IC50 ([13]; KOPN-8, read-out: IC50 proliferation, KOPN-8 (MLL-ENL), D1): > 10 µM
IC50 ([13]; KOPN-8, read-out: IC50 proliferation, KOPN-8 (MLL-ENL), D4): 6.34 µM
IC50 ([13]; KOPN-8, read-out: IC50 proliferation, KOPN-8 (MLL-ENL), D7): 1.89 µM
IC50 ([14]; EOL1, read-out: IC50 proliferation, EOL-1 (MLL-TD), D1): 6.83 µM
IC50 ([14]; EOL1, read-out: IC50 proliferation, EOL-1 (MLL-TD), D4): 1.62 µM
IC50 ([14]; EOL1, read-out: IC50 proliferation, EOL-1 (MLL-TD), D7): 1.14 µM
IC50 [15]: < 1 µM
CD11b protein level [16]: increased CD11b protein level in a dose and time-dependent manner
CD11b level [17]: did not increase CD11b level
cell cycle effect [18]: decrease of cells in S and G2/M phase with increasing concentrations
